From patent US7169761B2, “Azulene derivatives and salts thereof” (Astellas Pharma Inc., priority 2002, dated 2007) come the findings set out here.

For one experiment, the target named is T1, human SGLT2 (Homo sapiens, UniProt P31639).
T1 construct: expressed in transfected cells; host or cells: CHO-K1
T1 sequence (P31639 1-672): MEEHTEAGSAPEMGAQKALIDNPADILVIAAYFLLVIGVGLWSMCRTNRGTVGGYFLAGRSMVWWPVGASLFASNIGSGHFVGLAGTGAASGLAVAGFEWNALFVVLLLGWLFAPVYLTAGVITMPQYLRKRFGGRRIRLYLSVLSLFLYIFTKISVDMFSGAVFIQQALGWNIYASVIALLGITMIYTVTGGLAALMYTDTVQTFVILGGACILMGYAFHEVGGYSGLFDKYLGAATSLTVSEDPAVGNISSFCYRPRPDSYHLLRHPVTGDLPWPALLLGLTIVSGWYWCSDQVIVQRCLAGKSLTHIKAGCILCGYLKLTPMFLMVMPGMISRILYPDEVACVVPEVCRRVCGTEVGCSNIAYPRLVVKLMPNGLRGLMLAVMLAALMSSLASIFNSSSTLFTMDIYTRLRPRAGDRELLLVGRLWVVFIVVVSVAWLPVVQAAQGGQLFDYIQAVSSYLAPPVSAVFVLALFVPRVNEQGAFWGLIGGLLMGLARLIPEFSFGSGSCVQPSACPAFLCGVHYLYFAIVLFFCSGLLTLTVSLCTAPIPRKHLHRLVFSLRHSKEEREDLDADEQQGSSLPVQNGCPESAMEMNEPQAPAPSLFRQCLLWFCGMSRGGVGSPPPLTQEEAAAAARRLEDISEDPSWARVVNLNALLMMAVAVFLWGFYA
Kind of experiment: Inhibition of human Na+-glucose cotransporter (human SGLT2) activity: methyl-α-D-glucopyranoside intake in CHO cells stably expressing human SGLT2. It counts as cell-based. As to conditions: inhibition of methyl-α-D-(U-14C)glucopyranoside intake, CHO cells stably expressing human SGLT2, 37° C., two hours. From the text:
[Inhibition of Human Na^+-Glucose Cotransporter (Human SGLT2) Activity]
(1) Preparation of Human SGLT 2 Expression Vector
First, single-strand cDNA was reversely transcripted from total RNA originating from the human kidney (manufactured by BD Biosciences Clontech) using a Superscript II (manufactured by Invitrogen Corporation) and a random hexamer. Second, using the cDNA as a template, a DNA fragment encoding a human SGLT2 (Wells, R. G. et al., Am. J. Physiol., 1992, 263(3) F459) was amplified by the PCR reaction using Pyrobest DNA polymerase (manufactured by Takara Bio Inc.). That is, a Hind III site and an EcoRI site were inserted into the 5′ side and the 3′ side of the DNA fragment, respectively by using primers.
The amplified fragment was cloned into a pCR2.1-Topo vector using a Topo TA Cloning Kit (manufactured by Invitrogen Corporation) and the cloned vector was transfected into a competent cell of Escherichia coli JM109. Ampicillin-resistant clones were cultured in a LB medium containing ampicillin (100 mg/l). A plasmid was purified from the cultured Escherichia coli using the method of Hanahan (see Maniatis et al., “Molecular Cloning”). A DNA fragment for encoding a human SGLT2 was obtained by the Hind III/EcoRI digestion of the plasmid and ligated and cloned to the same site of the expression vector pcDNA 3.1 (manufactured by Invitrogen Corporation) using a DNA ligase (manufactured by Roche Diagnostics). The ligated clone was transfected into a competent cell of Escherichia coli JM109 in the same manner as described above and cultured in a LB medium containing ampicillin, and a human SGLT2 expression vector was obtained using the method of Hanahan.
(2) Preparation of Human SGLT2 Expressed Cells
The human SGLT2 expression vector was transfected into a CHO-K1 cell using Lipofectamine2000 (manufactured by Invitrogen Corporation). The cell was cultured in a Ham's F12 medium (manufactured by Nissui Pharmaceutical Co., Ltd.) containing penicillin (50 IU/ml, manufactured by Dainippon Pharmaceutical Co., Ltd.), streptomycin (50 μg/ml, manufactured by Dainippon Pharmaceutical Co., Ltd.), Geneticin (40 μg/ml, manufactured by Invitrogen Corporation), and 10% fetal bovine serum in the presence of 5% CO2 at 37° C. for two weeks, and Geneticin-resistant clones were obtained.
(3) Inhibition of Methyl-α-D-Glucopyranoside Intake
After removing the medium of a CHO cell which stably expresses the human SGLT2, a pretreatment buffer solution (buffer solution of pH 7.4 containing choline chloride (140 mM), potassium chloride (2 mM), calcium chloride (1 mM), magnesium chloride (1 mM), 2-[4-(2-hydroxyethyl)1-piperazinyl]ethanesulfonic acid (10 mM), and tris(hydroxymethyl) aminomethane (5 mM)) was added in the amount of 100 μl per well, and incubated at 37° C. for 20 minutes.
11 μl of methyl-α-D-(U-14C) glucopyranoside (manufactured by Amersham Pharmacia Biotech) was mixed with 1,000 μl of a buffer solution for intake containing a test compound (buffer solution of pH 7.4 containing sodium chloride (140 mM), potassium chloride (2 mM), calcium chloride (1 mM), magnesium chloride (1 mM), methyl-α-D-glucopyranoside (50 μM), 2-[4-(2-hydroxyethyl)1-piperazinyl]ethanesulfonic acid (10 mM), and tris(hydroxymethyl)aminomethane (5 mM)) to prepare a buffer solution for intake. A buffer solution for intake without a test compound was prepared for a control group. A buffer solution for basal intake without a test compound containing coline chloride (140 mM) instead of sodium chloride for measuring the basal intake was prepared as well.
After removing the pretreatment buffer solution, the buffer solution for intake was added (25 μl per well) and incubated at 37° C. for two hours. […]

In experiment [1] the test system is blood glucose of KK-A^y mice. Kind of experiment: Hypoglycemic activity confirmation test in fed KK-Ay mice. Conditions: rate of decrease in blood glucose AUC 0–8 hours vs control group; fed male KK-A^y mice, oral, 3 mg/10 ml suspension at 10 ml/kg. Type of experiment: in vivo, mouse. The method, then: [Hypoglycemic Activity Confirmation Test]
Fed KK-A^y mice (CLEA Japan, Inc., male) were used. The test compound was suspended in 0.5% methylcellulose solution to a concentration of 3 mg/10 ml. The weight of each mouse was measured. The test compound suspension was orally administered forcibly to the mice at a dose of 10 ml/kg. Only 0.5% methylcellulose solution was administered to the mice of a control group. Each group consisted of six mice. Blood was collected from the tail vein immediately before administering the compound and one, two, four, and eight hours after administering the compound. The blood glucose value was measured using a glucose CII Test Wako (manufactured by Wako Pure Chemical Industries, Ltd.). The intensity of hypoglycemic activity was determined by calculating the area under the blood glucose value-time curve (AUC) using a trapezoidal method from the glucose value of 0–8 hours after administering the compound and calculating the rate (%) of the decrease in the AUC of the drug-administered group from that of the control group.

For `OC[C@H]1O[C@@H](c2cccc(Cc3ccc4cccc-4cc3)c2)[C@H](O)[C@@H](O)[C@@H]1O` [Example 21], the IC50 on human SGLT2 is 99 nM.

Regarding `OC[C@H]1O[C@@H](c2cc(Cc3cc4cccccc-4c3)ccc2O)[C@H](O)[C@@H](O)[C@@H]1O` [Example 75, (1S)-1,5-anhydro-1-[5-(azulen-2-ylmethyl)-2-hydroxyphenyl]-D-glucitol], the IC50 on human SGLT2 was found to be 8.9 nM.

Regarding `Cc1ccc(Cc2cc3cccccc-3c2)cc1[C@@H]1O[C@H](CO)[C@@H](O)[C@H](O)[C@H]1O` [Example 11], the IC50 on human SGLT2 is 29 nM.

`OC[C@H]1O[C@@H](c2cccc(Cc3cc4cccccc-4c3)c2)[C@H](O)[C@@H](O)[C@@H]1O` [Example 25] displayed an IC50 on human SGLT2 of 22 nM.

`COc1cc(OC)c([C@@H]2O[C@H](CO)[C@@H](O)[C@H](O)[C@H]2O)cc1Cc1cc2cccccc-2c1` [Example 60, (1S)-1,5-anhydro-1-[5-(azulen-2-ylmethyl)-2,4-dimethoxyphenyl]-D-glucitol] came in with an IC50 against human SGLT2 of 5.7 nM. The molecule also yielded a Hypoglycemic activity in experiment [1] of 45%.

On human SGLT2, `COc1ccc(Cc2cc3cccccc-3c2)cc1[C@@H]1O[C@H](CO)[C@@H](O)[C@H](O)[C@H]1O` [Example 28] registered an IC50 of 16 nM. The same molecule yielded a Hypoglycemic activity in experiment [1] of 46%.

`CCOc1ccc(Cc2cc3cccccc-3c2)cc1[C@@H]1O[C@H](CO)[C@@H](O)[C@H](O)[C@H]1O` [Example 7, (1S)-1,5-anhydro-1-[5-(azulen-2-ylmethyl)-2-ethoxyphenyl]-D-glucitol]: at human SGLT2, half-maximal inhibition (IC50) was put at 16 nM.
